Source: US9409908B2 (priority 2012, dated 2016)
Counter-ions that a name gives are not always drawn. Like-named read-outs stand apart in the source and are kept apart here.

Legend:
[1] = biological target: purified human Factor XIa (Homo sapiens (Human), UniProt P03951); experiment: biochemical; assay type: biochemical
[2] = biological target: purified human plasma kallikrein (Homo sapiens (Human), UniProt P03952); experiment: biochemical; assay type: biochemical
[3] = TFA salt, read-out: Factor XIa Ki
[4] = TFA salt, read-out: Plasma Kallikrein Ki

Sequence of purified human Factor XIa (P03951 whole entry, looked up): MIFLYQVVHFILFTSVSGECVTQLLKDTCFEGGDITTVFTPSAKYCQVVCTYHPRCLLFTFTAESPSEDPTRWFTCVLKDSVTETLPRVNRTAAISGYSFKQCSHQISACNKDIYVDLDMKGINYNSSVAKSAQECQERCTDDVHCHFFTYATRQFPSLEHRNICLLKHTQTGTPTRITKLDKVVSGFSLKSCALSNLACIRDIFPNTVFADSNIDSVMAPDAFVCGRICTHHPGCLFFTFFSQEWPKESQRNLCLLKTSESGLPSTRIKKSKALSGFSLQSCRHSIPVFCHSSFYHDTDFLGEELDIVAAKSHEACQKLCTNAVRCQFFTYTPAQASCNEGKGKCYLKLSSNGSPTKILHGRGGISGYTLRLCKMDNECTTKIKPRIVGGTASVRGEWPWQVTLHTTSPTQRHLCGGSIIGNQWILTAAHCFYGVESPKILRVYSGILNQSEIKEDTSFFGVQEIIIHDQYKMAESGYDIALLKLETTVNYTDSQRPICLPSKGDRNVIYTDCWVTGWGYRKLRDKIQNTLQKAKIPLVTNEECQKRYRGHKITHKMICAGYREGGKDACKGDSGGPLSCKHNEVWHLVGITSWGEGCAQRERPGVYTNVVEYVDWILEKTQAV
Sequence of purified human Factor XIa (P03951 whole entry partner, looked up): as the sequence (P03951 whole entry, looked up) above
Sequence of purified human plasma kallikrein (P03952 whole entry, looked up): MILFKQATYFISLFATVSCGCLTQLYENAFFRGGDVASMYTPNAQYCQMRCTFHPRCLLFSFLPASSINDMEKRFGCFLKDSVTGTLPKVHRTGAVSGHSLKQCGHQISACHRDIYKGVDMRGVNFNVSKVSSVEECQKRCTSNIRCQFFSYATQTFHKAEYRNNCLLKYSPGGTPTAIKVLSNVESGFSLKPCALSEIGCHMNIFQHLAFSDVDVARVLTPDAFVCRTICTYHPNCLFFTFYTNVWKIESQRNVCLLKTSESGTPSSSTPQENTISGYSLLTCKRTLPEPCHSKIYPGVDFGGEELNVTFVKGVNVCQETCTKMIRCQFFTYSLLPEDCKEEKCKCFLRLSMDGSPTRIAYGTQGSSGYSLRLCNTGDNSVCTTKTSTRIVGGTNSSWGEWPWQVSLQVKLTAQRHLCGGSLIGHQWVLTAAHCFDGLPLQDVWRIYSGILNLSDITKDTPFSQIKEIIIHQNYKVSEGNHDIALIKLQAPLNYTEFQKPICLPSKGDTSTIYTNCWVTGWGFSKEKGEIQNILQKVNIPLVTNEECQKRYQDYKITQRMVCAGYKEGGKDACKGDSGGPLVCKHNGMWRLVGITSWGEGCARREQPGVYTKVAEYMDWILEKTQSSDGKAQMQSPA
Sequence of purified human plasma kallikrein (P03952 whole entry partner, looked up): as the sequence (P03952 whole entry, looked up) above

Row | SMILES | Ki ([1]; read-out: Factor XIa Ki) | other results
1 | COC(=O)Nc1ccc2c(c1)NC(=O)C(C)(O)CCC[C@H](N1CCC(c3c(F)ccc(Cl)c3F)=CC1=O)c1cc-2ccn1 (single isomer, unassigned) [Example 124, TFA salt] |  | Ki [1]: 346 nM; Ki ([2]; Plasma Kallikrein Ki): 483 nM
2 | COC(=O)Nc1ccc2c(c1)NC(=O)[C@H](C)CCC[C@H](N1CCC(C3CCCC(C)C3)=CC1=O)c1cc-2ccn1 (single isomer, unassigned) [Example 153, TFA salt] |  | Ki [1, 3]: 20 nM; Ki [2, 4]: 21.2 nM
3 | COC(=O)Nc1ccc2c(c1)NC(=O)[C@H](C)CCC[C@H](N1CCC(C3CCCC(C)C3)=CC1=O)c1cc-2ccn1 (single isomer, unassigned) [Example 218, TFA salt] |  | Ki [1, 3]: 38.2 nM; Ki [2, 4]: 378 nM
4 | COC(=O)Nc1ccc2c(c1)NC(=O)[C@H](C)CCC[C@H](N1CC(C)C(c3c(F)ccc(Cl)c3F)=CC1=O)c1cc-2ccn1 (single isomer, unassigned; isomer 2) [Example 178] |  | Ki ([2]; Plasma Kallikrein Ki): 5.68 nM
5 | C[C@@H]1CCC[C@H](N2CCC(c3c(F)ccc(Cl)c3F)=CC2=O)c2cc(ccn2)-c2cc(Cl)c(O)c(Cl)c2NC1=O [Example 20, (10R,14S)-4,6-Dichloro-14-[4-(3-chloro-2,6-difluorophenyl)-6-oxo-1,2,3,6-tetrahydropyridin-1-yl]-5-hydroxy-10-methyl-8,16-diazatricyclo[13.3.1.0^2,7]nonadeca-1(19),2,4,6,15,17-hexaen-9-one, TFA salt] |  | Ki ([2]; read-out: Plasma Kallikrein Ki): 973 nM
6 | COC(=O)Nc1ccc2c(c1)NC(=O)[C@H](C)CCC[C@H](N1CCC(c3c(C#N)ccc(C)c3F)=CC1=O)c1cc-2ccn1 [Example 104, Methyl N-[(10R,14S)-14-[4-(6-cyano-2-fluoro-3-methylphenyl)-6-oxo-1,2,3,6-tetrahydropyridin-1-yl]-10-methyl-9-oxo-8,16-diazatricyclo[13.3.1.0^2,7]nonadeca-1(18),2,4,6,15(19),16-hexaen-5-yl]carbamate, TFA salt] | 0.09 nM | 
7 | CC1CCC[C@H](N2CCC(c3c(F)ccc(Cl)c3F)=CC2=O)c2cc(ccn2)-c2ccc(C#N)cc2NC1=O (stereo partly drawn) [Example 109, (14S)-14-[4-(3-Chloro-2,6-difluorophenyl)-6-oxo-1,2,3,6-tetrahydropyridin-1-yl]-10-methyl-9-oxo-8,16-diazatricyclo[13.3.1.0^2,7]nonadeca-1(18),2,4,6,15(19),16-hexaene-5-carbonitrile, TFA salt] |  | Ki ([2]; read-out: Plasma Kallikrein Ki): 40 nM
8 | C[C@@H]1CCC[C@H](N2CCC(c3c(F)ccc(Cl)c3F)=CC2=O)c2cc(ccn2)-c2ccc(NC3O[C@H](CO)[C@@H](O)[C@H](O)[C@@H]3N)cc2NC1=O (stereo partly drawn) [Example 127, (10R,14S)-5-{[(3S,4R,5S,6R)-3-amino-4,5-dihydroxy-6-(hydroxymethyl)oxan-2-yl]amino)-14-[4-(3-chloro-2,6-difluorophenyl)-6-oxo-1,2,3,6-tetrahydropyridin-1-yl]-10-methyl-8,16-diazatricyclo[13.3.1.0^2,7]nonadeca-1(19),2,4,6,15,17-hexaen-9-one] | 3.61 nM | 
9 | C[C@@H]1CCC[C@H](N2CCC(c3c(F)ccc(Cl)c3F)=CC2=O)c2cc(ccn2)-c2ccc(NC3O[C@H](CO)[C@@H](O)[C@@H](O)[C@H]3NC(=O)OC(C)(C)C)cc2NC1=O (stereo partly drawn) [Example 132, tert-butyl N-[(3R,4S,5S,6R)-2-{[(10R,14S)-14-[4-(3-chloro-2,6-difluorophenyl)-6-oxo-1,2,3,6-tetrahydropyridin-1-yl]-10-methyl-9-oxo-8,16-diazatricyclo[13.3.1.0^2,7]nonadeca-1(19),2,4,6,15,17-hexaen-5-yl]amino}-4,5-dihydroxy-6-(hydroxymethyl)oxan-3-yl]carbamate] |  | Ki ([2]; read-out: Plasma Kallikrein Ki): 17.3 nM
10 | C[C@@H]1CCC[C@H](N2CCC(c3c(F)ccc(Cl)c3F)=CC2=O)c2cc(ccn2)-c2cc(-c3nn[nH]n3)ccc2NC1=O [Example 140, (10R,14S)-14-[4-(3-chloro-2,6-difluorophenyl)-6-oxo-1,2,3,6-tetrahydropyridin-1-yl]-10-methyl-4-(2H-1,2,3,4-tetrazol-5-yl)-8,16-diazatricyclo[13.3.1.0^2,7]nonadeca-1(19),2(7),3,5,15,17-hexaen-9-one] | 1.34 nM | 
11 | C[C@@H]1CCC[C@H](N2CCC(c3c(F)ccc(Cl)c3F)=CC2=O)c2cc(ccn2)-c2cc(F)ccc2NC1=O [Example 145, (10R,14S)-14-[4-(3-chloro-2,6-difluorophenyl)-6-oxo-1,2,3,6-tetrahydropyridin-1-yl]-4-fluoro-10-methyl-8,16-diazatricyclo[13.3.1.0^2,7]nonadeca-1(19),2(7),3,5,15,17-hexaen-9-one] | 18.6 nM | 
12 | C[C@@H]1CCC[C@H](N2CCC(c3c(F)ccc(Cl)c3F)=CC2=O)c2cc(ccn2)-c2cc(C(=O)O)ccc2NC1=O [Example 146, (10R,14S)-14-[4-(3-chloro-2,6-difluorophenyl)-6-oxo-1,2,3,6-tetrahydropyridin-1-yl]-10-methyl-9-oxo-8,16-diazatricyclo[13.3.1.0^2,7]nonadeca-1(19),2(7),3,5,15,17-hexaene-4-carboxylic acid] | 2.45 nM | 
13 | COC(=O)Nc1ccc2c(c1)NC(=O)[C@H](C)CCC[C@H](N1CCC(c3cccc(Cl)c3F)=CC1=O)c1nc-2c(C)[nH]1 [Example 151, Methyl N-[(10R,14S)-14-[4-(3-chloro-2-fluorophenyl)-6-oxo-1,2,3,6-tetrahydropyridin-1-yl]-10,17-dimethyl-9-oxo-8,16,18-triazatricyclo[13.2.1.0^2,7]octadeca-1(17),2,4,6,15(18)-pentaen-5-yl]carbamate] |  | Ki ([2]; read-out: Plasma Kallikrein Ki): 23.8 nM
14 | COC(=O)Nc1ccc2c(c1)NC(=O)[C@H](C)CCC[C@H](N1CCC(c3ccnc(Cl)c3)=CC1=O)c1cc-2ccn1 [Example 156, Methyl N-[(10R,14S)-14-[4-(2-chloropyridin-4-yl)-6-oxo-1,2,3,6-tetrahydropyridin-1-yl]-10-methyl-9-oxo-8,16-diazatricyclo[13.3.1.0^2,7]nonadeca-1(19),2,4,6,15,17-hexaen-5-yl]carbamate, 2 TFA salt] | > 446 nM | 
15 | COC(=O)c1ccc2c(c1)-c1cccc(c1)[C@@H](N1CCC(c3c(C(C)=O)ccc(Cl)c3F)=CC1=O)CCC[C@@H](C)C(=O)N2 [Example 172, Methyl (10R,14S)-14-[4-(6-acetyl-3-chloro-2-fluorophenyl)-6-oxo-1,2,3,6-tetrahydropyridin-1-yl]-10-methyl-9-oxo-8-azatricyclo[13.3.1.0^2,7]nonadeca-1(18),2,4,6,15(19),16-hexaene-4-carboxylate] | 140 nM | 
16 | COC(=O)Nc1ccc2c(c1)NC(=O)[C@H](C)CCC[C@H](N1CCC(c3c(C#N)ccc(Cl)c3F)=CC1=O)c1cccc-2c1 [Example 173, Methyl N-[(10R,14S)-14-[4-(3-chloro-6-cyano-2-fluorophenyl)-6-oxo-1,2,3,6-tetrahydropyridin-1-yl]-10-methyl-9-oxo-8-azatricyclo[13.3.1.0^2,7]nonadeca-1(18),2,4,6,15(19),16-hexaen-5-yl]carbamate] | 0.42 nM | 
17 | C#Cc1ccc(Cl)c(F)c1C1=CC(=O)N([C@H]2CCC[C@@H](C)C(=O)Nc3cc(NC(=O)OC)ccc3-c3ccnc2c3)CC1 [Example 181, Methyl N-[(10R,14S)-14-[4-(3-chloro-6-ethynyl-2-fluorophenyl)-6-oxo-1,2,3,6-tetrahydropyridin-1-yl]-10-methyl-9-oxo-8,16-diazatricyclo[13.3.1.0^2,7]nonadeca-1(19),2(7),3,5,15,17-hexaen-5-yl]carbamate] | 0.1 nM | 
18 | C[C@@H]1CCC[C@H](N2CCC(c3cc(Cl)ccc3-n3ccnn3)=CC2=O)c2cc(ccn2)-c2ccccc2NC1=O [Example 189, (10R,14S)-14-{4-[5-chloro-2-(1H-1,2,3-triazol-1-yl)phenyl]-6-oxo-1,2,3,6-tetrahydropyridin-1-yl}-10-methyl-8,16-diazatricyclo[13.3.1.0^2,7]nonadeca-1(19),2(7),3,5,15,17-hexaen-9-one] | 2.28 nM | 
19 | C[C@@H]1CCC[C@H](N2CCC(c3c(F)ccc(Cl)c3F)=CC2=O)c2cc(ccn2)-c2ccc(NC(=N)N)cc2NC1=O [Example 192, 1-[(10R,14S)-14-[4-(3-chloro-2,6-difluorophenyl)-6-oxo-1,2,3,6-tetrahydropyridin-1-yl]-10-methyl-9-oxo-8,16-diazatricyclo[13.3.1.0^2,7]nonadeca-1(19),2,4,6,15,17-hexaen-5-yl]guanidine, 2 TFA salt] | 91 nM | 
20 | COC(=O)c1cc2c(cc1N)NC(=O)[C@H](C)CCC[C@H](N1CCC(c3c(F)ccc(Cl)c3F)=CC1=O)c1cc-2ccn1 [Example 197, Methyl (10R,14S)-5-amino-14-[4-(3-chloro-2,6-difluorophenyl)-6-oxo-1,2,3,6-tetrahydropyridin-1-yl]-10-methyl-9-oxo-8,16-diazatricyclo[13.3.1.0^2,7]nonadeca-1(19),2,4,6,15,17-hexaene-4-carboxylate, 2 TFA salt] | 4.54 nM | 
21 | C[C@@H]1CCC[C@H](N2CCC(c3c(F)ccc(Cl)c3F)=CC2=O)c2cc(ccn2)-n2nc(C(=O)O)cc2NC1=O [Example 222, (9R,13S)-13-[4-(3-chloro-2,6-difluorophenyl)-6-oxo-1,2,3,6-tetrahydropyridin-1-yl]-9-methyl-8-oxo-2,3,7,15-tetraazatricyclo[12.3.1.0^2,6]octadeca-1(18),3,5,14,16-pentaene-4-carboxylic acid] | 88.4 nM | 
22 | C[C@@H]1CCC[C@H](N2CCC(c3c(F)ccc(Cl)c3F)=CC2=O)c2cc(ccn2)-n2nc(C3CC3)cc2NC1=O [Example 223, (9R,13S)-13-[4-(3-chloro-2,6-difluorophenyl)-6-oxo-1,2,3,6-tetrahydropyridin-1-yl]-4-cyclopropyl-9-methyl-2,3,7,15-tetraazatricyclo[12.3.1.0^2,6]octadeca-1(18),3,5,14,16-pentaen-8-one] | 302 nM | 
23 | COC(=O)Nc1cc2n(n1)-c1ccnc(c1)[C@@H](N1CCC(c3c(F)ccc(Cl)c3F)=CC1=O)CCC[C@@H](C)C(=O)N2 [Example 224, Methyl N-[(9R,13S)-13-[4-(3-chloro-2,6-difluorophenyl)-6-oxo-1,2,3,6-tetrahydropyridin-1-yl]-9-methyl-8-oxo-2,3,7,15-tetraazatricyclo[12.3.1.0^2,6]octadeca-1(18),3,5,14,16-pentaen-4-yl]carbamate] | 298 nM | 
